Measurements as given in publication PMC6054517, “Design and synthesis of novel oridonin analogues as potent anticancer agents” (Journal of Enzyme Inhibition and Medicinal Chemistry, 2018).
Read-outs that look alike come from different tables or passages of the source.

What was measured:
[1] = tested on: MGC803; assay: MTT antiproliferative assay, MGC803 cells; type: cell-based, human; conditions: for IC50: Homo sapiens, MGC-803, MTT, 48 h, means ± SD, n = 3; for Selectivity index MGC803: IC50 on normal cells (L02)/IC50 on tumour cells (MGC803)
Source text: (§1) Human gastric cancer (AGS), human differentiation of advanced gastric cancer (MGC803), human colorectal cancer (HCT116), human lung cancer (A549), human hepatocellular carcinoma (Bel7402) and human cervical cancer (HeLa) cell lines were obtained from the State Key Laboratory of Natural Resources and Functional Molecules of the Changbai Mountain (Yanbian University) and maintained in Dulbecco’s modified Eagle’s medium and RPMI Media 1640 (RPMI1640), supplemented with 10% foetal bovine serum 100 IU/ml penicillin, […] and 2 mmol/l L-glutamine (Sigma) at 37 °7 in a humidified atmosphere containing 5% CO2.
(§2) All six human cancer cell lines and normal L02 cells were seeded in 96-well plates at the appropriate densities to ensure exponential growth throughout the experimental period (9 × 10^3 cells per well) and then allowed to adhere for 24 h. The cells were then treated for 48 h with four serial dilutions (100, 50, 10, and 1 µM) of each compound. 5-Fluorouracil (5-FU) was used as the positive control. After incubation for 48 h, 10 µl MTT solution was added to each well to give a final concentration of 2 mg ml^−1. The plates were then incubated for further 4 h. After incubation, the MTT solution was removed and 150 µl DMSO was added to each well to solubilise the formed product. To ensure complete solubilisation, the plates were shaken vigorously for 10 min at room temperature. The optometric density (OD) was read on a microplate reader (ELx800, BioTek, Highland Park, Winooski, VT) at a wavelength of 492 nm and the data were subsequently analysed. The percentage of cell growth inhibition was calculated from the following equation: inhibitory rate (%) = [1–(ODtreated–ODblank)/(ODcontrol–ODblank)] × 100.
(§3) The MTT assay was performed using a standard protocol.

[2] = tested on: HCT116 cells; assay: Apoptosis by flow cytometry (annexin V-FITC/PI); type: cell-based, human; conditions: HCT116, 5 µM, 48 h; vehicle 6.20%
Method: Apoptosis was detected using an Apoptosis Detection Kit (Invitrogen, Eugene, OR). Briefly, cells were plated in six-well plates (1.0 × 10^6 cells per well) and incubated at 37 °C for 12 h. Exponentially growing cells were then incubated with compound 2p at different concentrations (0 , 5.0 µM) and oridonin at 5.0 µM. Following 48 h of incubation, the cells were collected and washed twice with PBS, once with 1 × binding buffer, and then stained with 5 µM annexin V-FITC and 2.5 µM PI in 1 × binding buffer for 30 min at room temperature in the dark. Apoptotic cells were quantified using a FACSCalibur flow cytometer with the Cell Quest software (Becton-Dickinson).
Because compound 2p arrested the cells in the G2 phase, we investigated whether it also causes apoptosis. HCT116 cells were treated with the vehicle, compound 2p (5 µM), or oridonin (5 µM) for 48 h, and then stained with annexin V-FITC and PI.

[3] = tested on: AGS; assay: MTT antiproliferative assay, AGS cells; type: cell-based, human; conditions: for IC50: Homo sapiens, AGS, 48 h, MTT, means ± SD, n = 3; for Selectivity index AGS: IC50 on normal cells (L02)/IC50 on tumour cells (AGS)
Source text: as §1, §2, §3

[4] = tested on: A549; assay: MTT antiproliferative assay, A549 cells; type: cell-based, human; conditions: for IC50: Homo sapiens, A549, MTT, 48 h, means ± SD, n = 3; for Selectivity index A549: IC50 on normal cells (L02)/IC50 on tumour cells (A549)
Source text: as §1, §2, §3

[5] = tested on: HCT116; assay: MTT antiproliferative assay, HCT116 cells; type: cell-based, human; conditions: for IC50: MTT, 48 h, means ± SD, n = 3; for Selectivity index HCT116: IC50 on normal cells (L02)/IC50 on tumour cells (HCT116)
Source text: as §1, §2, §3

[6] = tested on: Bel7402; assay: MTT antiproliferative assay, Bel7402 cells; type: cell-based, human; conditions: for IC50: Homo sapiens, Bel-7402, MTT, 48 h, means ± SD, n = 3
Source text: as §1, §2, §3

[7] = tested on: L02; assay: MTT assay on normal cell line L02; type: cell-based; conditions: normal human liver cell line L02, MTT, 48 h
Method: as §2, with “5-Fluorouracil (5-FU) was used as the positive control.” left out
Lack of selective cytotoxicity is the main factor that restricts the dose of most conventional chemotherapeutic agents. […] Selectivity indexes between cancer cells and L-02 cells were calculated.

[8] = tested on: HCT116 cells; assay: Cell cycle distribution by flow cytometry (PI); type: cell-based, human; conditions: HCT116, 5 μM, 48 h; control 19.35%
Method: HCT116 cells were plated in six-well plates (1.0 × 10^6 cells per well) and incubated at 37 °7 for 12 h. Exponentially growing cells were then incubated with compound 2p at different concentrations (0 , 5.0 µM) and oridonin at 5.0 µM. After 48 h, the cells were centrifuged at 1000 rpm for 10 min and then fixed in 70% ethanol at −20 °0 for at least 24 h. The cells were subsequently resuspended in phosphate-buffered saline (PBS) containing 50 µg ml^−1 RNase A and 50 µg ml^−1 PI. The cellular DNA content for the cell cycle distribution analysis was measured by flow cytometry using a FACSCalibur flow cytometer with Cell Quest software (Becton-Dickinson, Franklin Lakes, NJ), plotting at least 30,000 events per sample. The percentage of cells in the G1, S and G2 phases of the cell cycle were determined using the ModFit LT V4.0 software package (Verity Software, Topsham, ME).
Numerous cytotoxic compounds exert their antiproliferative effect by inducing cell cycle arrest (at a particular cell cycle checkpoint), apoptosis, or both[25]. These mechanisms are considered to be effective anticancer strategies. We used fluorescence-activated cell sorting analysis to explore the mechanism by which compound 2p reduced the viability of HCT116 cells. Compound 2p and oridonin were selected and tested against HCT116 cell lines at a concentration of 5 µM.

[9] = tested on: Hela; assay: MTT antiproliferative assay, HeLa cells; type: cell-based, human; conditions: for IC50: Homo sapiens, HeLa, MTT, 48 h, means ± SD, n = 3; for Selectivity index Hela: IC50 on normal cells (L02)/IC50 on tumour cells (Hela)
Source text: as §1, §2, §3

[10] = tested on: HCT116; conditions: cited from earlier work
[11] = tested on: AGS, MGC803, Bel7402, HCT116, A549, and HeLa; assay: MTT assay, overall statement on six tumour cell lines; type: cell-based, human; conditions: six cancer cell lines
Source text: as §1, §2, §3

SMILES | IC50 [1] | Selectivity index MGC803 [1] | percentage of total apoptotic cells (right quadrants, Q2 + Q3) [2] | IC50 [3] | Selectivity index AGS [3] | IC50 [4] | Selectivity index A549 [4] | IC50 ([5]; Homo sapiens, HCT-116, 48 h) | Selectivity index HCT116 [5] | IC50 [6] | Selectivity index Bel7402 ([6]; IC50 on normal cells (L02)/IC50 on tumour cells (Bel7402)) | IC50 [7] | percentage of G2 cell population [8] | IC50 [9] | Selectivity index Hela [9] | IC50 [10] | antiproliferative activities against the six tumour cell lines (in words) [11] | IC50 value in L02 cells relative to that in HCT116 cells (selectivity) ([5]; L02 versus HCT116) | IC50 [5]
C=C1C(=O)[C@]23[C@H](O)[C@H]1CC[C@H]2[C@@]12CO[C@]3(O)[C@@H](O)[C@@H]1C(C)(C)CC[C@@H]2O [Oridonin] | 9.18 ± 1.01 µM | 0.76 | 24.84% | 8.35 ± 0.41 µM | 0.83 | 24.7 ± 2.11 µM | 0.28 | 6.84 ± 0.98 µM | 1.02 | 9.59 ± 1.19 µM | 0.73 | 6.97 ± 0.98 µM | 37.80% | 15 ± 2.01 µM | 0.46 | – | – | – | –
CC(C)=CCOc1ccc(C(=O)/C=C/c2ccc(Cl)cc2)c(O)c1 [Compound 4] | – | – | – | – | – | – | – | – | – | – | – | – | – | – | – | 0.89 µM | – | – | –
CC(C)=CCOc1ccc(/C=C2/C(=O)[C@]34[C@H](O)[C@H]2CC[C@H]3C23CO[C@]4(O)[C@@H](O)[C@@H]2C(C)(C)CC[C@@H]3O)cc1 [Compound 2p, (1S,4aR,5S,6S,6aR,9S,11aS,14R,E)-1,5,6,14-tetrahydroxy-4,4-dimethyl-8-(4-((3-methylbut-2-en1yl)oxy)benzylidene)decahydro-1H-6,11b-(epoxymethano)-6a,9-methanocyclohepta[a]naphthalen-7(8H)-one] | 4.54 ± 0.94 µM | 0.75 | 60.94% | 4.09 ± 0.65 µM | 3.28 | 5.9 ± 0.52 µM | 1.17 | 1.08 µM | 6.55 | 3.21 ± 0.58 µM | – | 6.88 ± 1.12 µM | 41.46% | 6.33 ± 0.96 µM | 1.09 | – | more potent antiproliferative activities in vitro than oridonin | 6.5 fold | 1.05 ± 0.23 µM
